In patent US4156011A, “Sulphur- and oxygen-containing diaryl compounds” (priority 1974, dated 1979):
Structures can show the parent of a compound that is named as a salt.

Columns and labels:
[1] = Solubility of the isolated product; details: for solubility in water (in words) / solubility: water
[2] = Reduction of lipids and cholesterol in rats treated orally; format: in vivo; details: oral 100 mg/kg, 4 days; for inhibition in vivo at 100 mg/kg: Rattus norvegicus, 96 h

| Structure (SMILES) | solubility in water (in words) [1] | other results |
| --- | --- | --- |
| CC(Sc1ccc(Sc2ccc(Cl)cc2)cc1)C(=O)O (racemic) [CRL 40,351, (±)-2-[p-(p-Chlorophenylthio)-phenylthio]-propionic acid] | water-insoluble |  |
| CC(Oc1ccc(S(=O)(=O)c2ccc(Cl)cc2)cc1)C(=O)OCCNCCSCCCCCCCCCCSCCNCCOC(=O)C(C)Oc1ccc(S(=O)(=O)c2ccc(Cl)cc2)cc1 (racemic) [CRL 40249, 6,17-Dithia-3,20-diaza-1,22-docosanediol di-(±)-2-[p-(p-chlorophenylsulphonyl)-phenoxy]-propionate] | insoluble in water | solubility in alcohol (in words) [1]: insoluble in water and in alcohol |
| CC(COC(=O)CSc1ccc(Sc2ccc(Cl)cc2)cc1)SCCCCCCCCCCSC(C)COC(=O)CSc1ccc(Sc2ccc(Cl)cc2)cc1 (racemic) [CRL 40,395, (±)-2,15-Dimethyl-3,14-dithia-1,16-hexadecyl di-[p-(p-chlorophenylthio)-phenylthio-acetate]] |  | inhibition in vivo at 100 mg/kg [2]: 27%; reduction in the (total) lipids [2]: 18% |
| CC(Sc1ccc(Oc2ccc(Cl)cc2)cc1)C(=O)O (racemic) [CRL 40,281, (±)-2-[4-(4-chlorophenoxy)-phenylthio]-propionic acid] | insoluble in water |  |
| CC(C)(CNCCO)Oc1ccc(Oc2ccc(Cl)cc2)cc1 [CRL 40 311, N-Ethanol-2-[4-(4-chlorophenoxy)-phenoxy]-2-methyl-1-propylamine hydrochloride] | soluble in water |  |
| Cl.NC(COc1ccc(Oc2ccc(Cl)cc2)cc1)=NO [CRL 40 337, 4-(4-Chlorophenoxy)-phenoxy-acetamidoxime hydrochloride] | partially soluble in water |  |
| CC(C)(CNCCO)Sc1ccc(Oc2ccc(Cl)cc2)cc1 [CRL 40,279, N-Hydroxyethyl-4-(4-chlorophenoxy)phenylthio-isobutylamine] | insoluble in water |  |
| CC(Oc1ccc(Oc2ccc(Cl)cc2)cc1)C(=O)O (racemic) [CRL 40,299, (±)-2-[4-(4-Chlorophenoxy)-phenoxy]-propionic acid] | insoluble in water |  |
| CC(COC(=O)C(C)Sc1ccc(Oc2ccc(Cl)cc2)cc1)SCCCCCCCCCCSC(C)COC(=O)C(C)Sc1ccc(Oc2ccc(Cl)cc2)cc1 (racemic) [CRL 40,409, (±)-2,15-Dimethyl-3,14-dithia-1,16-hexadecyl di-(±)-{2-[p-(p-chlorophenoxy)-phenylthio]-propionate}] |  | reduction in the (total) lipids [2]: 9-10% |
| CC(Sc1ccc(Oc2ccc(Cl)cc2)cc1)C(=O)OCCSCCCCCCCCCCSCCOC(=O)C(C)Sc1ccc(Oc2ccc(Cl)cc2)cc1 (racemic) [CRL 40,408, 3,14-Dithia-1,16-hexadecyl di-(±)-{2-[p-(p-chlorophenoxy)-phenylthio]-propionate}] |  | inhibition in vivo at 100 mg/kg [2]: 20%; reduction in the (total) lipids [2]: 17% |
| CC(C)(Oc1ccc(Oc2ccc(Cl)cc2)cc1)C(=O)O [CRL 40,308, 4-(4-Chlorophenoxy)-phenoxy-isobutyric acid] | insoluble in water |  |
| CC(Oc1ccccc1Sc1ccc(Cl)cc1)C(=O)OCCNCCSCCCCCCCCCCSCCNCCOC(=O)C(C)Oc1ccccc1Sc1ccc(Cl)cc1 (racemic) [CRL 40 247, 6,17-Dithia-3,20-diaza-1,22-docosanediol di-(±)-[2-(4-chlorophenylthio)phenoxy-propionate]] | insoluble in water | solubility in alcohol (in words) [1]: soluble in alcohol |
| CC(C)(Oc1ccc(S(=O)(=O)c2ccc(Cl)cc2)cc1)C(=O)OCCNCCSCCCCCCCCCCSCCNCCOC(=O)C(C)(C)Oc1ccc(S(=O)(=O)c2ccc(Cl)cc2)cc1 [CRL 40241, 6,17-Dithia-3,20-diaza-1,22-docosanediol di-p-(p-chlorophenylsulphonyl)-phenoxy-isobutyrate] | insoluble in water | solubility in hot alcohol (in words) ([1]; hot alcohol): soluble in hot alcohol |
| CC(C)(Oc1ccc(Sc2ccc(Cl)cc2)cc1)C(=O)N(CCO)CCSCCCCCCCCCCSCCN(CCO)C(=O)C(C)(C)Oc1ccc(Sc2ccc(Cl)cc2)cc1 [CRL 40 254, 3,20-di[p-(p-chlorophenylthio)phenoxy-isobutyryl]-6,17-dithia-3,20-diaza-1,22-docosanediol] | insoluble in water |  |
| Cl.N=C(N)COc1ccc(Oc2ccc(Cl)cc2)cc1 [CRL 40 338, 4-(4-Chlorophenoxy)-phenoxy-acetamidine hydrochloride] | soluble in water |  |
| CC(Oc1ccc(Sc2ccc(Cl)cc2)cc1)C(=O)O (racemic) [CRL 40,246, (±)-2-[4-Chlorophenylthio)-phenoxy]-propionic acid] | insoluble in water | solubility in alcohol (in words) [1]: soluble in alcohol |
| CC(C)(Sc1ccc(Oc2ccc(Cl)cc2)cc1)C(=O)O [CRL 40,275, 4-(4-chlorophenoxy)-phenylthio-isobutyric acid] | insoluble in water |  |
| CC(C)(Oc1ccc(Oc2ccc(Cl)cc2)cc1)C(=O)NCCO [CRL 40 309, N-Hydroxyethyl-2-[4-(4-chlorophenoxy)-phenoxy]-2-methylpropionamide] | insoluble in water |  |
| CC(CNCCO)Oc1ccc(Oc2ccc(Cl)cc2)cc1.Cl (racemic) [CRL 40 301, (±)-N-Hydroxyethyl-2-[4-(4-chlorophenoxy)-phenoxy]-1-propylamine hydrochloride] |  | solubility [1]: 200 mg/mL |
| CC(C)(Oc1ccc([S+]([O-])c2ccc(Cl)cc2)cc1)C(=O)OCCNCCSCCCCCCCCCCSCCNCCOC(=O)C(C)(C)Oc1ccc([S+]([O-])c2ccc(Cl)cc2)cc1 (stereo not shown) [CRL 40 242, 6,17-Dithia-3,20-diaza-1,22-docosanediol di-[4-(4-chlorosulphinyl)-phenoxy-isobutyrate]] | insoluble in water | solubility in alcohol (in words) [1]: soluble in alcohol |
| CC(CNC(C)(C)CO)Oc1ccc(Oc2ccc(Cl)cc2)cc1.Cl (racemic) [CRL 40 302, (±)-N-(β-Hydroxy-α,α-dimethylethyl)-2-[4-(4-chlorophenoxy)-phenoxy]-1-propylamine hydrochloride] |  | solubility [1]: 200 mg/mL |
| O=C(CSc1ccc(Oc2ccc(Cl)cc2)cc1)OCCSCCCCCCCCCCSCCOC(=O)CSc1ccc(Oc2ccc(Cl)cc2)cc1 [CRL 40,284, 3,14-Dithia-1,16-hexadecyl di-[p-(p-chlorophenoxy)-phenylthio-acetate]] | water-insoluble |  |
| CC(C)(Oc1ccc(Sc2ccc(Cl)cc2)cc1)C(=O)OCCNCCSCCCCCCCCCCSCCNCCOC(=O)C(C)(C)Oc1ccc(Sc2ccc(Cl)cc2)cc1 [CRL 40 240, 6,17-Dithia-3,20-diaza-1,22-docosanediol di-p-(p-chlorophenylthio)-phenoxy-isobutyrate] | insoluble in water | solubility in alcohol (in words) [1]: soluble in alcohol |
| CC(C)(Oc1ccc(S(=O)(=O)c2ccc(Cl)cc2)cc1)C(=O)O [CRL 40,239, 4-(4-chlorophenylsulphonyl)-phenoxy-isobutyric acid] | insoluble in water | solubility in alcohol (in words) [1]: soluble in alcohol |
| CC(COS(C)(=O)=O)Oc1ccc(Oc2ccc(Cl)cc2)cc1 (racemic) [Example 34, (±)-2-[4-(4-Chlorophenoxy)-phenoxyl]-propyl mesylate] | insoluble in water |  |
